Data reported in article PMC6272497, “Biological Activities and Cytotoxicity of Diterpenes from Copaifera spp. Oleoresins” (Molecules, 2015).
Several values for one entry are separate records, joined by “and”; a condition that tells them apart may be missing. Equal entries are not always repeated. Entries after “also recorded” stand apart in the source; their conditions may differ.

Experiments:
TNF-α production = test system: TNF-α production; design: method as in PMID 11278990; conditions: cited from earlier work
[1] = test system: SF295 (human glioblastoma); assay: Alamar Blue assay, tumoral cells SF295; format: cell-based; conditions: 72 h, 20 µmol/L
Description: (§1) We also investigated possible cytotoxic effects on tumor cell lines (Table 1). To characterize this activity, the compounds were tested in different tumor cell lines, among which were AGP-01 (gastric), HCT116 (colorectal), MCF07 (breast cancer), NIHOVCAR (ovary), SKAMELL-4 (melanoma), and SF-295 (human glioblastoma), each at a concentration of 20 µM.
(§2) Cytotoxicity assay. The cytotoxicity of diterpene compounds to the murine macrophage cell line J774 was determined by the Alamar Blue method as described by Nakayama et al.. Briefly, adherent cells (5 × 10^3 cells/well) were grown in 96-well tissue culture plates and exposed to substances (2.5 to 10 µg/mL) for 24, 48 and 72 h. After incubation, the Alamar Blue solution (10 μL of 0.4% Alamar Blue (resazurin) in PBS) was added and the cells were incubated for 3 h at 37 °C. Fluorescence was measured (excitation at 545 nm and emission at 595 nm) and expressed as a percentage of the cells in the control after background fluorescence was subtracted. As a positive control of cell death, doxorubicin (5 µg/mL) was used. The assays were performed in triplicate. For the assays with tumoral cells, an Alamar Blue assay was performed using the following cell lines: AGP01—gastric; HCT116—colorectal; MCF07—breast cancer; NIHOVCAR—ovary; SKAMELL4—melanoma; SF295—human glioblastoma, which were seeded in 96-well plates (0.5 × 10^4 cells per well) and incubated in a CO2 atmosphere at 5% and 37 °C. After 24 h, diterpenes at 20 µM were added to each well and incubated for 72 h. Doxorubicin (10 μM) was used as a positive control and DMSO (0.1%) as a negative control. Before the end of the incubation, 10 µL of Alamar Blue (0.02%) was added to each well. The fluorescent signal was monitored using a multiplate reader using a 530–560 nm excitation wavelength and 590 nm emission wavelength. The fluorescent signal generated from the assay was proportional to the number of live cells in the sample, according to the manufacturer.

IL-6 production = IL-6 production in LPS-stimulated J774 cells (CBA); format: cell-based, murine; conditions: for inhibition of IL-6 production (words): LPS-stimulated J774; for inhibition at 25 µM: Mus musculus, J774, 25 µM (abstract)
Description: Figure 2 Effect of the isolated diterpenic acids on nitric oxide (NO^•) and cytokine production in lipopolysaccharide-stimulated J774 cells. (A) TNF-α, (B) IL-6 and (C) IL-10 and (D) NO^•. […] The nitrite and cytokines values are the mean ± S.D. from three independent experiments. Indomethacin was used as a standard. Statistical analysis was performed using the Holm-Sidak multiple comparison. * p < 0.05 when compared to control stimulated with LPS. (1) 3-hydroxy-copalic acid, (2) kaurenoic acid, (3) 3-acetoxy-copalic acid, (4) kolavic acid 15-methyl ester, (5) copalic acid and (6) hardwickiic acid.
[…] The culture supernatants were collected after 24 h of LPS stimulation. The levels of cytokines in the culture media were measured by flow cytometry (BD Cytometric Bead Array—CBA—Mouse Inflammation kit) according to the manufacturer’s instructions.

SKMELL28 (melanoma) = assay: Alamar Blue assay, tumoral cells SKMELL28; format: cell-based; conditions: 72 h, 20 µmol/L
Description: as §1, §2

IL-10 production = IL-10 production in LPS-stimulated J774 cells (CBA); format: cell-based, murine
Description: Figure 2 Effect of the isolated diterpenic acids on nitric oxide (NO^•) and cytokine production in lipopolysaccharide-stimulated J774 cells. (A) TNF-α, (B) IL-6 and (C) IL-10 and (D) NO^•. Production of NO^• was assayed in culture supernatants of macrophages stimulated with LPS (1 µg/mL) for 24 h in the presence of the four compounds (25 µg/mL to cytokines and 50 µg/mL to NO^•). The nitrite and cytokines values are the mean ± S.D. from three independent experiments. Indomethacin was used as a standard. Statistical analysis was performed using the Holm-Sidak multiple comparison. * p < 0.05 when compared to control stimulated with LPS. (1) 3-hydroxy-copalic acid, (2) kaurenoic acid, (3) 3-acetoxy-copalic acid, (4) kolavic acid 15-methyl ester, (5) copalic acid and (6) hardwickiic acid.
Macrophage cells (1 × 10^6 cells/mL) were incubated with different concentrations of diterpene compounds (12.5 to 50 μM), and then stimulated with 1 μg/mL of LPS. The culture supernatants were collected after 24 h of LPS stimulation. The levels of cytokines in the culture media were measured by flow cytometry (BD Cytometric Bead Array—CBA—Mouse Inflammation kit) according to the manufacturer’s instructions.

MCF7 (breast cancer) = assay: Alamar Blue assay, tumoral cells MCF7; format: cell-based; conditions: 72 h, 20 µmol/L
Description: as §1, §2

AGP01 (gastric) = assay: Alamar Blue assay, tumoral cells AGP01; format: cell-based; conditions: 72 h, 20 µmol/L
Description: as §1, §2

HCT-116 (colorectal) = assay: Alamar Blue assay, tumoral cells HCT-116; format: cell-based; conditions: 72 h, 20 µmol/L
Description: as §1, §2

NIHOVCAR (ovary) = assay: Alamar Blue assay, tumoral cells NIHOVCAR; format: cell-based; conditions: 72 h, 20 µmol/L
Description: as §1, §2

tyrosinase = assay: Tyrosinase inhibition test; format: biochemical
Description: The tyrosinase inhibition test was performed at concentrations of 31.25 to 500 µM.
(§3) Figure 1 Tyrosinase and lipoxygenase activities of the isolated diterpenes from Copaifera sp. […] 1. 3-hydroxy-copalic acid, 2. kaurenoic acid, 3. 3-acetoxy-copalic acid, 4. kolavic acid15-methyl ester, 5. copalic acid, and 6. hardwickiic acid. Each value is the mean ± S.E. of three independent experiments. Statistical analysis was performed using Holm-Sidak multiple comparisons. * p < 0.05 compared with the negative control.

[2] = test system: nitric oxide production in J774 macrophages stimulated with LPS; assay: NO production assay (Griess) in LPS-stimulated J774 cells; format: cell-based, murine; conditions: Mus musculus; for IC50: J774, LPS 1 µg/mL, 24 h, read-out: inhibition of NO production IC50
Description: Our study evaluated the effects of diterpene compounds on the production of nitric oxide in the murine macrophage cell line J774 stimulated with LPS (Figure 2D). NO^• levels were measured by the Greiss method. […] Similar results for kaurenoic acid were observed by Choi et al. […] Figure 2 Effect of the isolated diterpenic acids on nitric oxide (NO^•) and cytokine production in lipopolysaccharide-stimulated J774 cells. (A) TNF-α, (B) IL-6 and (C) IL-10 and (D) NO^•. […] The nitrite and cytokines values are the mean ± S.D. from three independent experiments. Indomethacin was used as a standard. Statistical analysis was performed using the Holm-Sidak multiple comparison. * p < 0.05 when compared to control stimulated with LPS. (1) 3-hydroxy-copalic acid, (2) kaurenoic acid, (3) 3-acetoxy-copalic acid, (4) kolavic acid 15-methyl ester, (5) copalic acid and (6) […]. NO^• production by J774 cells was assayed by measuring the accumulation of nitrite in the culture medium using a Griess reaction. Briefly, after incubation of the cells (1 × 10^6 cells/mL) with diterpene compounds in different concentrations from 6.25 to 100 μM, cells were incubated for 24 h with LPS (1 μg/mL), at 37 °C in a 5% CO2 incubator. Nitric oxide was measured as NO2 in culture supernatant by reaction with Griess reagent. Absorbance of the reaction product was determined at 560 nm using a microplate reader (DTX 800, Beckman). Sodium nitrite was used as a standard to calculate nitrite concentrations.

Lipoxygenase (LOX) = Lipoxygenase (LOX) (Glycine max, UniProt P08170); assay: Lipoxygenase inhibition; format: biochemical
Chain of Lipoxygenase (LOX) (P08170 whole entry): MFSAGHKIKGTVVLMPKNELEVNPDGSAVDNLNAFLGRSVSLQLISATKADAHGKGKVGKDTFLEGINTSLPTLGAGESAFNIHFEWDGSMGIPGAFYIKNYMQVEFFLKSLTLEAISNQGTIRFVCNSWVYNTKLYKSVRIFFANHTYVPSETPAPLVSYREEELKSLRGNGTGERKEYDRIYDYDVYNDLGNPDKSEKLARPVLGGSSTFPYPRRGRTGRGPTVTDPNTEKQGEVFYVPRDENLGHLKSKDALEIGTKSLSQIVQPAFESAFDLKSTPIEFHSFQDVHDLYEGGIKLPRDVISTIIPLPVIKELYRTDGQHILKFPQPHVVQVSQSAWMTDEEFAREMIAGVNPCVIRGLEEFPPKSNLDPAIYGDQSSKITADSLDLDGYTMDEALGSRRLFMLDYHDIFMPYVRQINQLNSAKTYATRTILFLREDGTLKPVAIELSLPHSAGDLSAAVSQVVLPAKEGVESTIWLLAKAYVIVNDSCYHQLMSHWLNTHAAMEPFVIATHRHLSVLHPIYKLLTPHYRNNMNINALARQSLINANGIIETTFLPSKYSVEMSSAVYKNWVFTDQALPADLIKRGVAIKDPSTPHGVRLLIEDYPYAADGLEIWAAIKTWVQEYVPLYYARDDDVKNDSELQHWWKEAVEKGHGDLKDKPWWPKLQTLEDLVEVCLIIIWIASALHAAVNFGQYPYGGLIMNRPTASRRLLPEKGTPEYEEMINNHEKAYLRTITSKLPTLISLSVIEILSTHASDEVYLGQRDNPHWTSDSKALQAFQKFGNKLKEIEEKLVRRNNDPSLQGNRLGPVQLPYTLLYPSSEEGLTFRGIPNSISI
Description: as §3

erythrocyte = assay: Hemolysis test
Description: The assay for the characterization of hemolytic activity aimed to evaluate the potential of diterpenes on lysis of the cell membrane.
Blood was collected in heparinized-tubes from Wistar rats, and washed three times with saline solution (NaCl 0.85% + CaCl2 10 mM) by centrifugation at 700 g for 10 min. The pellet of erythrocyte was re-suspended in saline solution for preparation of erythrocyte suspension −2% (SE). A total of 100 µL of the samples of diluted diterpenes was added to 96-well microplates in different concentrations (6.25 to 800 µM); 100 µL of SE was then added; and the samples were incubated for 60 min at 37 °C under constant agitation. The release of hemoglobin was determined after centrifugation (700 g for 10 min) by photometric analysis of the supernatant at 540 nm. Complete hemolysis was achieved using 0.2% Triton X-100 yielding the 100% control value.

LOX = test system: LOX; design: method as in doi:10.1007/s00044-013-0559-7; conditions: read-out: LOX inhibition IC50; cited from earlier work
[3] = LPS-stimulated J774, 12.5 to 50 µM

| Compound | Viability inhibition (%) SF295 [1] [%] | Viability inhibition (%) SKMELL28 (SKMELL28 (melanoma)) [%] | IL-10 production (words) (IL-10 production; [3]) | Viability inhibition (%) MCF7 (MCF7 (breast cancer)) [%] | Viability inhibition (%) HCT-116 (HCT-116 (colorectal)) [%] | Viability inhibition (%) NIHOVCAR (NIHOVCAR (ovary)) [%] | IC50 [2] [µM] | also measured |
| --- | --- | --- | --- | --- | --- | --- | --- | --- |
| foliol | – | – | – | – | – | – | – | inhibition of TNF-α production (TNF-α production): showed inhibitory activity on the production of TNF-α |
| C=C1CCC2C(C)(C)[C@H](OC(C)=O)CC[C@@]2(C)[C@@H]1CCC(C)=CC(=O)O (stereo in doubt) [3-acetoxy-copalic acid, 3-Acetoxy-copalic acid] | 17.7 ± 0.9 | ≤0.01 | increased IL-10 production; also recorded: induced IL-10 production | ≤0.01 | ≤0.01 | 2.0 ± 3.5 | – | Viability inhibition (%) SF295 ([1]; listed as 3-AcO-copalic): around 20%; inhibition of IL-6 production (words) (IL-6 production): inhibited the production of IL-6; inhibition at 25 µM (IL-6 production): 23.8%; IL-10 production (words) (IL-10 production; 12.5 µM and 25 µM): induced the production of IL-10; IL-10 production (words) (IL-10 production; 50 µM): this induction decreased; Viability inhibition (%) AGP01 (AGP01 (gastric)): 13.1 ± 5.3% |
| linearol acid | – | – | – | – | – | – | – | inhibition of TNF-α production (TNF-α production): showed inhibitory activity on the production of TNF-α |
| C=C1CCC2C(C)(C)[C@H](O)CC[C@@]2(C)[C@@H]1CC/C(C)=C\C(=O)O (some centres unmarked) [3-hydroxy-copalic acid, 3-Hydroxy-copalic acid] | 20.5 ± 5.0 | ≤0.01 | promoted the induction of IL-10 independent of the dose tested | ≤0.01 | 4.7 ± 5.6 | ≤0.01 | – | tyrosinase inhibition (tyrosinase; 250 µM): 63.9% and 64% ± 1.5%; tyrosinase activity relative to standard kojic acid (tyrosinase; 63.9% at 250 µM vs 73.5% at 700 µM): three times more active than the standard; tyrosinase inhibitory activity (tyrosinase; conclusions): higher inhibitory activity; IC50 (tyrosinase; tested at 31.25 to 500 µM): 256 µM; Viability inhibition (%) SF295 ([1]; listed as 3-HO-copalic): around 20%; IL-10 production (words) (IL-10 production; LPS-stimulated J774, 12.5 to 50 µM, listed as 3-hydroxy-copalic): induced IL-10 production; also recorded: induced production of interleukin-10; Viability inhibition (%) AGP01 (AGP01 (gastric)): 8.5 ± 13.1% |
| COC(=O)/C=C(/C)CC[C@@]1(C)[C@H](C)CC[C@@]2(C)C(C(=O)O)=CCC[C@H]12 [kolavic acid 15-methyl ester, Kolavic acid-15-metyl ester] | ≤0.01 | ≤0.01 | did not induce the production of IL-10 | ≤0.01 | ≤0.01 | ≤0.01 | 81.6 ± 2.8 | lipoxygenase inhibition (Lipoxygenase (LOX); 200 µM): 89.5% ± 1.2%; lipoxygenase inhibition activity (Lipoxygenase (LOX); conclusions, compared to standard quercetin): high lipoxigenase inhibition activity; inhibition of IL-6 production (words) (IL-6 production; listed as kolavic-15-methyl ester): inhibited the production of IL-6; inhibition at 25 µM (IL-6 production): 17.3%; Viability inhibition (%) AGP01 (AGP01 (gastric)): 17.4 ± 6.7% |
| C[C@@H]1CC[C@@]2(C)C(C(=O)O)=CCC[C@@H]2[C@@]1(C)CCc1ccoc1 [hardwickiic acid, Hardwickiic acid] | ≤0.01 | ≤0.01 | did not induce the production of IL-10 | ≤0.01 | ≤0.01 | ≤0.01 | 67.4 ± 1.3 | – |
| C=C1CC[C@@H]2C(C)(C)CCC[C@@]2(C)[C@@H]1CC/C(C)=C/C(=O)O [copalic acid, Copalic acid] | ≤0.01 | ≤0.01 | increased IL-10 production; also recorded: induced IL-10 production; also recorded: induced production of interleukin-10 | ≤0.01 | ≤0.01 | ≤0.01 | 57.4 ± 0.2 | inhibition at 100 µM ([2]; J774, 100 µM, LPS-activated macrophages): 98.5%; inhibition of IL-6 production (words) (IL-6 production): inhibited the production of IL-6; inhibition at 25 µM (IL-6 production): 4.2%; hemolytic activity (erythrocyte; 100 µM (abstract)): 38.4%; hemolytic activity (erythrocyte; 100 mM (so in the source)): 38.4% |
| COc1c(C(C)C)cc2c(c1O)C=C1C=CC(=O)C(C)(C)C1CC2=O (centres unmarked) [taxamairin F] | – | – | – | – | – | – | – | IC50 (LOX): 73 ± 0.14 µM |
| COc1c(C(C)C)cc2c(c1OC)[C@@]13CCC(=O)C(C)(C)[C@@H]1[C@H](OC3=O)C2=O [taxusabietane C] | – | – | – | – | – | – | – | IC50 (LOX): 69 ± 0.31 µM |
| COc1ccc2c(c1)c(CC(=O)O)c(C)n2C(=O)c1ccc(Cl)cc1 [indomethacin, reference compound] | – | – | – | – | – | – | 32 ± 3.5 | – |
| O=c1cc(CO)occ1O [Kojic acid, reference compound] | – | – | – | – | – | – | – | tyrosinase inhibition (activity of standard) (tyrosinase; 700 µM): 73.5% |
